The results in this text go back to patent US11072608B2, “Pesticidally active heterocyclic derivatives with sulphur containing substituents” (SYNGENTA PARTICIPATIONS AG, priority 2014, dated 2021).

The test system of data set [1] is Spodoptera littoralis (Egyptian cotton leaf worm). The experiment in a line: Example B1: activity against Spodoptera littoralis, cotton leaf disc spray. Format: in vivo. The note with it: foliar, 72 h, application rate of 200 ppm, cotton leaf discs, L1 larvae, 3 days after infestation, read-out: control in at least one of the three categories (mortality, anti-feedancy or growth inhibition). The protocol:
Example B1: Activity Against Spodoptera littoralis (Egyptian Cotton Leaf Worm)
Cotton leaf discs were placed on agar in 24-well microtiter plates and sprayed with aqueous test solutions prepared from 10,000 ppm DMSO stock solutions. After drying the leaf discs were infested with five L1 larvae. The samples were assessed for mortality, anti-feedant effect, and growth inhibition in comparison to untreated samples 3 days after infestation. Control of Spodoptera littoralis by a test sample is when at least one of mortality, anti-feedant effect, and growth inhibition is higher than the untreated sample. The following compound gave an effect of at least 80% control in at least one of the three categories (mortality, anti-feedancy or growth inhibition) at an application rate of 200 ppm: P1, P4, P5, P8, P9, P10, P12 and P13.

For data set [2] the test system is unchanged. The experiment in a line: Example B2: activity against Spodoptera littoralis, systemic via lettuce on agar. The note with it: 144 h, application rate of 12.5 ppm, Spodoptera eggs, 6 days after infestation, read-out: control in at least one of the three categories (mortality, anti-feedancy or growth inhibition). Format: in vivo. The text has this: Example B2: Activity Against Spodoptera Littoralis (Egyptian Cotton Leaf Worm)
Test compounds were applied by pipette from 10,000 ppm DMSO stock solutions into 24-well plates and mixed with agar. Lettuce seeds were placed on the agar and the multi well plate was closed by another plate which contains also agar. After 7 days the roots have absorbed the compound and the lettuce has grown into the lid plate. The lettuce leafs were now cut off into the lid plate. Spodoptera eggs were pipetted through a plastic stencil on a humid gel blotting paper and the plate closed with it. The samples were assessed for mortality, anti-feedant effect and growth inhibition in comparison to untreated samples 6 days after infestation. The following compound gave an effect of at least 80% control in at least one of the three categories (mortality, anti-feedancy or growth inhibition) at an application rate of 12.5 ppm: P1, P4, P9, P12 and P13.

The test system of data set [3] is Plutella xylostella (diamond back moth). The experiment in a line: Example B3: activity against Plutella xylostella, artificial diet. In kind it is in vivo. Particulars: 120 h, application rate of 200 ppm, L2 larvae, 5 days after infestation, read-out: effect in at least one of the two categories (mortality or growth inhibition). The protocol: Example B3: Activity Against Plutella xylostella (Diamond Back Moth)
24-well microtiter plates with artificial diet were treated with aqueous test solutions prepared from 10,000 ppm DMSO stock solutions by pipetting. After drying, the plates were infested with L2 larvae (10 to 15 per well). The samples were assessed for mortality and growth inhibition in comparison to untreated samples 5 days after infestation. The following compound gave an effect of at least 80% in at least one of the two categories (mortality or growth inhibition) at an application rate of 200 ppm: P1, P4, P5, P6, P8, P9, P10, P11, P12 and P13.

For data set [4], the system named is Diabrotica balteata (corn root worm). Nature of the data set: Example B4: activity against Diabrotica balteata, maize sprouts spray. In kind it is in vivo. The note with it: 96 h, application rate of 200 ppm, L2 larvae, 4 days after infestation, read-out: effect in at least one of the two categories (mortality or growth inhibition). How it is done:
Example B4: Activity Against Diabrotica balteata (Corn Root Worm)
Maize sprouts, placed on an agar layer in 24-well microtiter plates were treated with aqueous test solutions prepared from 10,000 ppm DMSO stock solutions by spraying. After drying, the plates were infested with L2 larvae (6 to 10 per well). The samples were assessed for mortality and growth inhibition in comparison to untreated samples 4 days after infestation. The following compounds gave an effect of at least 80% in at least one of the two categories (mortality or growth inhibition) at an application rate of 200 ppm: P1, P4, P5, P6, P8, P9, P10, P11, P12 and P13.

The test system of data set [5] is Myzus persicae (green peach aphid). The experiment in a line: Example B5: activity against Myzus persicae, sunflower leaf disc spray. Format: in vivo. Particulars: foliar, 144 h, application rate of 200 ppm, sunflower leaf discs, mixed ages, 6 days after infestation. How it is done: Example B5: Activity Against Myzus persicae (Green Peach Aphid)
Sunflower leaf discs were placed on agar in a 24-well microtiter plate and sprayed with aqueous test solutions prepared from 10,000 ppm DMSO stock solutions. After drying, the leaf discs were infested with an aphid population of mixed ages. The samples were assessed for mortality 6 days after infestation.

Data set [6] relates to Bemisia tabaci (cotton white fly). The experiment in a line: Example B7: activity against Bemisia tabaci, cotton leaf disc spray. Format: in vivo. The note with it: foliar, 144 h, application rate of 200 ppm, cotton leaf discs, adult white flies, 6 days after incubation. How it is done:
Example B7: Activity Against Bemisia tabaci (Cotton White Fly)
Cotton leaf discs were placed on agar in 24-well microtiter plates and sprayed with aqueous test solutions prepared from 10,000 ppm DMSO stock solutions. After drying the leaf discs were infested with adult white flies. The samples were checked for mortality 6 days after incubation.

Data set [7] relates to Euschistus heros (neotropical brown stink bug). Nature of the data set: Example B8: activity against Euschistus heros, soybean leaf spray. The note with it: 120 h, application rate of 200 ppm, N-2 nymphs, 5 days after infestation. Format: in vivo. How it is done: Example B8: Activity Against Euschistus heros (Neotropical Brown Stink Bug)
Soybean leaf on agar in 24-well microtiter plates were sprayed with aqueous test solutions prepared from 10,000 ppm DMSO stock solutions. After drying the leaf were infested with N-2 nymphs. The samples were assessed for mortality 5 days after infestation.

Data set [8] deals with Frankliniella occidentalis (western flower thrips). The experiment in a line: Example B10: activity against Frankliniella occidentalis, sunflower leaf disc spray. Format: in vivo. The note with it: foliar, 168 h, application rate of 200 ppm, sunflower leaf discs, mixed ages, 7 days after infestation. How it is done: Example B10: Activity Against Frankliniella occidentalis (Western Flower Thrips)
Sunflower leaf discs were placed on agar in 24-well microtiter plates and sprayed with aqueous test solutions prepared from 10,000 DMSO stock solutions. After drying the leaf discs were infested with a Frankliniella population of mixed ages. The samples were assessed for mortality 7 days after infestation.

For data set [9], the system named is Thrips tabaci (onion thrips). The experiment in a line: Example B11: activity against Thrips tabaci, sunflower leaf disc spray. In kind it is in vivo. The note with it: foliar, 144 h, application rate of 200 ppm, sunflower leaf discs, mixed ages, 6 days after infestation. The protocol: Example B11: Activity Against Thrips tabaci (Onion Thrips)
Sunflower leaf discs were placed on agar in 24-well microtiter plates and sprayed with aqueous test solutions prepared from 10,000 ppm DMSO stock solutions. After drying the leaf discs were infested with a Thrips population of mixed ages. The samples were assessed for mortality 6 days after infestation.

Data set [10] relates to Myzus persicae (green peach aphid). Nature of the data set: Example B9: activity against Myzus persicae, roots of pea seedlings in test solution. Format: in vivo. The note with it: 144 h, test rate of 24 ppm, 6 days. How it is done:
Example B9: Activity Against Myzus persicae (Green Peach Aphid)
Roots of pea seedlings infested with an aphid population of mixed ages were placed directly into aqueous test solutions prepared from 10,000 DMSO stock solutions. The samples were assessed for mortality 6 days after placing seedlings into test solutions.

By mortality is commonly meant the share of the test organisms that died. A higher mortality goes with fewer survivors. `CCS(=O)(=O)c1cc(C2CC2)cnc1-c1nc2cc(C(F)(F)F)cnc2n1C` [Compound P4, 2-(5-cyclopropyl-3-ethylsulfonyl-2-pyridyl)-3-methyl-6-(trifluoromethyl) imidazo[4,5-b]pyridine]: the percent control (mortality, anti-feedancy or growth inhibition) at 200 ppm in [1] is not below 80%. For the same compound, the control at 12.5 ppm in data set [2] is not below 80%. Besides, the percent effect (mortality or growth inhibition) at 200 ppm in data set [3] and in data set [4] was not below 80% each time. The mortality at 200 ppm in [5], in data set [6], in data set [7] and in data set [8] was not below 80% in each case.

As for `CCS(=O)(=O)c1cc(C2CCC2)cnc1-c1nc2cc(C(F)(F)F)cnc2n1C` [Compound P8], the percent control (mortality, anti-feedancy or growth inhibition) at 200 ppm in data set [1] was not below 80%. Also, the percent effect (mortality or growth inhibition) at 200 ppm in data set [3] and in data set [4] was not below 80% throughout. Besides, the mortality at 200 ppm in data set [5], in data set [6] and in data set [7] was not below 80% in each case.

On to `CCS(=O)(=O)c1cc(C2(C(=O)O)CC2)cnc1-c1nc2cc(C(F)(F)F)cnc2n1C` [Compound P12, 1-[5-ethylsulfonyl-6-[3-methyl-6-(trifluoromethyl)imidazo[4,5-b]pyridin-2-yl]-3-pyridyl]cyclopropanecarboxylic acid], for which the percent control (mortality, anti-feedancy or growth inhibition) at 200 ppm in data set [1] is not below 80%. For the same compound, in [2], the control at 12.5 ppm is not below 80%. For the same compound, the percent effect (mortality or growth inhibition) at 200 ppm in data set [3] and in [4] was not below 80% each time. Also, the mortality at 200 ppm in [5], in data set [6] and in [7] was not below 80% in each case.

What is called melting point is the temperature of the solid-liquid transition. As for `CCSc1cc(C2CCCCC2)cnc1-c1nc2cc(C(F)(F)F)cnc2n1C` [Compound P3, 2-(5-cyclohexyl-3-ethylsulfanyl-2-pyridyl)-3-methyl-6-(trifluoromethyl) imidazo[4,5-b]pyridine], the melting point is 148 to 150 °C.

In the case of `CCSc1cc(C2CCCC2)cnc1-c1nc2cc(C(F)(F)F)cnc2n1C` [Compound P2, 2-(5-cyclopentyl-3-ethylsulfanyl-2-pyridyl)-3-methyl-6-(trifluoromethyl) imidazo[4,5-b]pyridine], the melting point fell in the range of 130 to 132 °C.

As for `CCS(=O)(=O)c1cc(C2(C#N)CCC2)cnc1-c1nc2cc(C(F)(F)F)cnc2n1C` [Compound P10], the percent control (mortality, anti-feedancy or growth inhibition) at 200 ppm in data set [1] was not below 80%. The percent effect (mortality or growth inhibition) at 200 ppm in data set [3] and in [4] was not below 80% in each case. The mortality at 200 ppm in data set [5], in data set [6] and in [7] was not below 80% throughout.

In turn, `CCS(=O)(=O)c1ccc(C2CC2)nc1-c1nc2cc(C(F)(F)F)cnc2n1C` [Compound P14, 2-(6-cyclopropyl-3-ethylsulfonyl-2-pyridyl)-3-methyl-6-(trifluoromethyl)imidazo[4,5-b]pyridine] came in with a melting point of 163 to 165 °C.

Consider `CCS(=O)(=O)c1cc(C2CCCC2)cnc1-c1nc2cc(C(F)(F)F)cnc2n1C` [Compound P5], for which the percent control (mortality, anti-feedancy or growth inhibition) at 200 ppm in data set [1] is not below 80%. The percent effect (mortality or growth inhibition) at 200 ppm in [3] and in data set [4] was not below 80% each time. The mortality at 200 ppm in data set [5] and in data set [7] was not below 80% in each case.

For `CCS(=O)(=O)c1cc(C2(C#N)CC2)cnc1-c1nc2cc(SC(F)(F)F)cnc2n1C` [Compound P13, 1-[5-ethylsulfonyl-6-[3-methyl-6-(trifluoro-methylsulfanyl)imidazo[4,5-b]pyridin-2-yl]-3-pyridyl]cyclopropanecarbonitrile], the percent control (mortality, anti-feedancy or growth inhibition) at 200 ppm in data set [1] is not below 80%. In addition, in data set [2], the control at 12.5 ppm was not below 80%. For the same compound, the percent effect (mortality or growth inhibition) at 200 ppm in [3] and in data set [4] was not below 80% each time. In addition, the mortality at 200 ppm in data set [5], in data set [6], in [7], in [8] and in [9] was not below 80% in each case.

As for `CCSc1cc(C2CCC2)cnc1-c1nc2cc(C(F)(F)F)cnc2n1C` [Compound P7], the melting point fell in the range of 136 to 138 °C.

Regarding `CCS(=O)(=O)c1cc(C2(C(N)=O)CC2)cnc1-c1nc2cc(C(F)(F)F)cnc2n1C` [Compound P11, 1-[5-ethylsulfonyl-6-[3-methyl-6-(trifluoromethyl)imidazo[4,5-b]pyridin-2-yl]-3-pyridyl]cyclopropanecarboxamide], the percent effect (mortality or growth inhibition) at 200 ppm in data set [3] and in data set [4] was not below 80% throughout. The mortality at 200 ppm in data set [5], in [6], in data set [7] and in [8] was not below 80% in each case. The same compound registered a mortality at 24 ppm in data set [10] not below 80%.

`CCS(=O)(=O)c1cc(C2CCCCC2)cnc1-c1nc2cc(C(F)(F)F)cnc2n1C` [Compound P6]: the percent effect (mortality or growth inhibition) at 200 ppm in data set [3] and in data set [4] was not below 80% in each case. The mortality at 200 ppm in data set [5], in data set [6] and in data set [7] was not below 80% throughout.
